# Patent publication EP0396405A2, “Cosmetic formulations employing esterified alkoxylated polyol carriers” (ARCO CHEMICAL TECHNOLOGY INC., priority 1989, dated 1990)
# Test system: Hartley albino guinea pigs
# Experiment: Guinea pig maximization test (Magnusson and Kligman method), delayed contact hypersensitivity
# Type: in vivo
# Conditions: primary challenge
# Experimental: The potential of EAP-1 to produce delayed contact hypersensitivity in guinea pigs was evaluated by the Magnusson and Kligman Maximization Test Method.
# On day zero, twenty Hartley albino guinea pigs plus ten positive control animals, and ten vehicle control animals each received six intradermal injections, i.e. duplicate injections (0.1 ml;injection) for each of the three test groups: test material (undiluted), formaldehyde (5.0% w/v in distilled water) and acetone, respectively. Each animal also received two intradermal injections of 50% v/v Freund's Complete Adjuvant (FCA) in distilled water and two injections of the respective test or control materials in the FCA/distilled water emulsion.
# On day 6, these same groups of animals were exposed topically to a preparation of their respective test (50% w/v in acetone) or control material under ELASTOPLAST@ (a product of Beiersdorf, Inc.) bandage wrappings for approximately 48 hours.
# On day 19, all animals were topically challenged at a naive (not previously exposed) skin site using a preparation of their respective test or control material under ELASTOPLAST@ bandage wrappings for approximately 24 hours. Naive control animals were patched identically to and concurrently with the test and positive.
# On the day after removal, the sites were depilated. Later that day and again on the next day, the sites were graded for erythema (redness). […]
smiles,measurement,setting,value
"C=O [positive control, formaldehyde]",sensitization classification,positive control group,extreme sensitization
same,incidence of grade 1 responses or greater,positive control group (10/10),100%
